In the CATMoS acute toxicity set (Mansouri et al. 2021):

Assay: GHS categories as the set defines them, by LD50: 1 up to 5, 2 up to 50, 3 up to 300, 4 up to 2000, 5 above 2000 mg/kg
Settings: rat; in vivo; po

NC(=O)c1ccc[n+]([C@@H]2O[C@H](COP(=O)([O-])OP(=O)(O)OC[C@H]3O[C@@H](n4cnc5c(N)ncnc54)[C@H](O)[C@@H]3O)[C@@H](O)[C@H]2O)c1 and CC(=O)OC1C=CC(C)=CCC(O)C=CC(C)=CC(NC(=O)C(C)=O)C2(C)C(=O)OC(C1)C(C)C2=O (stereo unspecified) are the same in GHS category: 5 for the first, 5 for the second.

Going from CCCCCCCCOc1ccccc1C(=O)Nc1ccc(C(=O)OCC[N+](C)(CC)CC)cc1 to Cc1ccc(OC(N)=O)c(C(=O)Oc2ccccc2)c1, the GHS category rises from 4 to 5.

COc1cc(OC)nc(NC(=O)Oc2ccccc2)n1 and CCS(=O)(=O)c1cccnc1S(=O)(=O)NC(=O)Nc1nc(OC)cc(OC)n1 are the same in GHS category: 5 for the first, 5 for the second.

Compared with O=C=NS(=O)(=O)c1ccccc1C(F)(F)F, CCOc1nc(NC)nc(NC(=O)NS(=O)(=O)c2ccccc2C(=O)OC)n1 is higher in GHS category: 4 for the first, 5 for the second.

NNC(=O)NN and CCCCCNCC(N)=O are the same in GHS category: 5 for the first, 5 for the second.

C=C(C#N)C(=O)OCCOC and CCOCCOC(=O)C(=O)Nc1nc(-c2ccccc2)cs1 are the same in GHS category: 5 for the first, 5 for the second.

Cc1ccc2nc(-c3ccc(N)cc3)sc2c1S(=O)(=O)O and Nc1ccc(OS(=O)(=O)O)c(C(=O)O)c1 are the same in GHS category: 5 for the first, 5 for the second.

First: CCCc1c(Cc2ccc(-c3ccccc3-c3nn[nH]n3)cc2)c(=O)nc2nc(CO)[nH]n12
Second: CCCCC(=O)N(Cc1ccc(-c2ccccc2-c2nnn[nH]2)cc1)[C@@H](C(=O)O)C(C)C
The GHS category of the first is lower: 4 for the first, 5 for the second.

CNC(=O)C(=NNc1cccc(Cl)c1)C(C)=O and CCC1(c2ccccc2O)NC(=O)NC1=O (stereo unspecified) are the same in GHS category: 5 for the first, 5 for the second.

CC[C@H](C)C(=O)O[C@H]1C[C@@H](C)C=C2C=C[C@H](C)[C@H](CC[C@@H]3C[C@@H](O)CC(=O)O3)[C@H]21 and CC(=O)OC1C=C(C)C2CC(=C(C)C)CC2C(C)C1 (stereo unspecified) are the same in GHS category: 5 for the first, 5 for the second.

Going from CC1N=C(c2ccccc2F)c2c(ccc(NC(=O)NCCO)c2Br)N(C)C1=O (stereo unspecified) to CC(C)=CCC(C#N)(CCN(C)C)Cc1cccc2ccccc12 (stereo unspecified), the GHS category falls from 5 to 4.

First: CCN(CCCSc1nnnn1C)C(=O)C1CCCCC1
Second: CC(C)CC(=O)O[C@@H]1C[C@@H]2CC[C@@]1(C)C2(C)C (racemic)
The GHS category of the first is lower: 4 for the first, 5 for the second.

Clc1ccc(C(c2ccccc2Cl)C(Cl)Cl)cc1 (stereo unspecified) and c1ccc(COc2ccc3ccccc3c2)cc1 are the same in GHS category: 5 for the first, 5 for the second.

Compared with CC(=O)C(=O)CC(C)C, CC(=O)NC(C(=O)O)C(C)(C)S (stereo unspecified) is lower in GHS category: 5 for the first, 4 for the second.

CCCc1nc(C)c2c(=O)nc(-c3cc(S(=O)(=O)N4CCN(CC)CC4)ccc3OCC)[nH]n12 and CCCN(CCC)c1c([N+](=O)[O-])cc(S(C)(=O)=O)cc1[N+](=O)[O-] are the same in GHS category: 5 for the first, 5 for the second.

CCCCCCCCCCCCOCCOCCOCCOCCOCCOCCOCCOCCOCCOCCOCCOCCOCCOCCOCCOCCOCCOCCOCCOCCOCCOCCOCCO and CCCCCCCCCCCC1CC(O)=C(CCCCCC)C(=O)O1 (stereo unspecified) are the same in GHS category: 5 for the first, 5 for the second.

CC(=O)OCC(=O)[C@@]1(OC(C)=O)CC[C@H]2[C@@H]3C[C@@H](F)C4=CC(=O)C(Br)=C[C@]4(C)[C@@]3(F)[C@@H](O)C[C@@]21C and C#C[C@]1(O)CC[C@H]2[C@@H]3CCC4=CC(=O)CC[C@]4(C)[C@H]3CC[C@@]21C are the same in GHS category: 5 for the first, 5 for the second.

CN1COCN=C1N[N+](=O)[O-] and COc1ccc2c(c1)CCN(c1ccccc1)C2c1ccccc1[N+](=O)[O-] (stereo unspecified) are the same in GHS category: 4 for the first, 4 for the second.

CCc1cccc(OP(=O)(Oc2cccc(CC)c2)Oc2cccc(CC)c2)c1 and S=C(SSC(=S)N(Cc1ccccc1)Cc1ccccc1)N(Cc1ccccc1)Cc1ccccc1 are the same in GHS category: 5 for the first, 5 for the second.

First: CC1(C)COC(Cn2ccnc2)(c2cc3ccccc3o2)OC1
Second: CC1CC(OC(=O)C(Oc2ccccc2Cl)C(C)C)CC(C)(C)C1 (stereo unspecified)
The GHS category of the first is lower: 4 for the first, 5 for the second.

With CO[C@@H](c1cc(C)c(O)c(C)c1)[C@@H](C)CO the GHS category was 5.
